Activity calls are given as the source filed them. No rule for the calls is given here.

For this data set, the system named is GENE-TOX genotoxicity assays, various organisms and cells. The data set is described as follows: GENE-TOX mutagenicity studies. The conditions noted are these: for call: Assay Type: In vivo carcinogenicity studies.
The mark [1] stands for this setting: Species/Cell Type: Drosophila melanogaster, Assay Type: Sex-linked recessive lethal gene mutation, Assay Code: SRLT, Evaluation Type: Evaluation A (Pre-1980).
Where [2] appears, read: Species/Cell Type: Syrian hamster embryo (SA7/SHE) cells, Assay Type: Cell transformation, viral enhanced, Assay Code: CT7+, Evaluation Type: Evaluation A (Pre-1980).
[3] abbreviates: Species/Cell Type: Salmonella typhimurium, Assay Type: Forward and reverse gene mutation, host-mediated assay, Assay Code: HMA-, Evaluation Type: Evaluation A (Pre-1980).
Setting [4] is: Species/Cell Type: Salmonella typhimurium (one or more of the five standard strains: TA98, TA100, TA1535, TA1537, and TA1538), Assay Type: Histidine reverse gene mutation, Ames assay, Assay Code: SAL+, Evaluation Type: Evaluation A (Pre-1980).
The mark [5] stands for this setting: Species/Cell Type: Schizosaccharomyces pombe, Assay Type: Reverse gene mutation, Assay Code: YEZ+, Evaluation Type: Evaluation A (Pre-1980).
[6] abbreviates: Species/Cell Type: Salmonella typhimurium (one or more of the five standard strains: TA98, TA100, TA1535, TA1537, and TA1538), Assay Type: Histidine reverse gene mutation, Ames assay, Assay Code: SAL-, Evaluation Type: Evaluation A (Pre-1980).
Where [7] appears, read: Species/Cell Type: Salmonella typhimurium (one or more of the five standard strains: TA98, TA100, TA1535, TA1537, and TA1538), Assay Type: Histidine reverse gene mutation, Ames assay, Assay Code: SALT, Evaluation Type: Evaluation A (Pre-1980).

For `O=C1NC(=O)C(c2ccccc2)(c2ccccc2)N1`, the mutagenic call (Species/Cell Type: Human lymphocytes, Assay Type: Sister-chromatid exchange (SCE) in vivo, Assay Code: SCY+, Evaluation Type: Evaluation B (Post-1980)) was “active; positive”; the mutagenic call (Species/Cell Type: Human, Sex: Male, Assay Type: Sperm morphology, Assay Code: SPHT, Evaluation Type: Evaluation A (Pre-1980)) is recorded as “no conclusion”; the mutagenic call (Species/Cell Type: Mammalian polychromatic erythrocytes, Assay Type: Micronucleus test, chromosome aberrations, Assay Code: MNT+, Evaluation Type: Evaluation B (Post-1980)) was “active; positive”; the mutagenic call (Species/Cell Type: Mammalian polychromatic erythrocytes, Assay Type: Micronucleus test, chromosome aberrations, Assay Code: MNTT, Evaluation Type: Evaluation B (Post-1980)) is “no conclusion”; the mutagenic call (Species/Cell Type: Nonhuman, Assay Type: Sister-chromatid exchange (SCE) in vivo, Assay Code: SC3+, Evaluation Type: Evaluation B (Post-1980)) was “active; positive”.
Take `Nc1nc(=O)n([C@H]2C[C@H](O)[C@@H](CO)O2)cc1Br`: the mutagenic call by setting is: (Species/Cell Type: Arabidopsis species, Assay Type: Gene mutation, Assay Code: ARM+, Evaluation Type: Evaluation A (Pre-1980)) “active; positive”; under setting [1], “no conclusion”; (Species/Cell Type: Human lymphocytes, Assay Type: Sister-chromatid exchange (SCE) in vitro, Assay Code: SCLT, Evaluation Type: Evaluation B (Post-1980)) “no conclusion”; (Species/Cell Type: Human, Assay Type: Sister-chromatid exchange (SCE) in vitro, Assay Code: SC1T, Evaluation Type: Evaluation B (Post-1980)) “no conclusion”; under setting [2], “active; positive”.
Turning to `O=C(O)CN(CC(=O)O)C1C[C@H]1N(CC(=O)O)CC(=O)O` (stereo partly specified), where the note is “Species/Cell Type: Chinese hamster lung (V79) cells, Assay Type: Forward gene mutation at the HPRT or ouabain locus, Assay Code: V79+, Evaluation Type: Evaluation A (Pre-1980)”, the mutagenic call is “active; positive”.
For the compound `Cc1cc(N(C)CCCl)ccc1N=Nc1ccccc1C(=O)O`, the mutagenic call under setting [1] was “no conclusion”.
For `O=C(CCN1CCCC1)c1ccc2c(c1)OCO2`, the mutagenic call under setting [3] was “inactive; negative”.
Regarding `CCOC(=O)N(C)N=O`, the mutagenic call is, setting by setting: (Species/Cell Type: Arabidopsis species, Assay Type: Gene mutation, Assay Code: ARM+D, Dose Response: With dose response, Evaluation Type: Evaluation A (Pre-1980)) “active; positive”; (Species/Cell Type: Bacillus subtilis (H17 vs M45T), Assay Type: Rec-assay, spot test, DNA effects (bacterial DNA repair), Assay Code: REX+, Evaluation Type: Evaluation A (Pre-1980)) “active; positive”; (Species/Cell Type: Drosophila melanogaster, Assay Type: Sex-linked recessive lethal gene mutation, Assay Code: SRL+, Evaluation Type: Evaluation A (Pre-1980)) “active; positive”; (Species/Cell Type: Drosophila melanogaster, Sex: Male, Assay Type: Heritable translocation test, chromosome aberrations, Assay Code: DHTT, Evaluation Type: Evaluation A (Pre-1980)) “no conclusion”; (Species/Cell Type: Escherichia coli polA (W3119 vs P3478), Assay Type: Rec-assay, DNA effects (bacterial DNA repair), Assay Code: RE1+, Evaluation Type: Evaluation A (Pre-1980)) “active; positive”; (Species/Cell Type: Hordeum vulgare (barley), Assay Type: Chromosome aberrations, Assay Code: HOC+D, Dose Response: With dose response, Evaluation Type: Evaluation A (Pre-1980)) “active; positive”. Moreover, the mutagenic call was “active; positive” (Species/Cell Type: Hordeum vulgare (barley), Assay Type: Gene mutation, Assay Code: HOM+, Evaluation Type: Evaluation A (Pre-1980)); “active; positive” (Species/Cell Type: Saccharomyces cerevisiae, Assay Type: Forward gene mutation, Assay Code: YEF+, Evaluation Type: Evaluation A (Pre-1980)); “active; positive” (Species/Cell Type: Saccharomyces cerevisiae, Assay Type: Mitotic recombination or gene conversion, Assay Code: YEC+, Evaluation Type: Evaluation A (Pre-1980)); “active; positive” (Species/Cell Type: Saccharomyces cerevisiae, Assay Type: Mitotic recombination or gene conversion, Assay Code: YEH+, Evaluation Type: Evaluation A (Pre-1980)); “active; positive” under setting [4]; “active; positive” under setting [5]. Also, where the note is “Species/Cell Type: Nonhuman, Assay Code: CCG+, Evaluation Type: Evaluation A (Pre-1980)”, the call is “active; positive”.
For the compound `O=c1[nH]cccc1[N+](=O)[O-]`, the mutagenic call under setting [4] is “active; positive”.
For the compound `COc1cc([C@@H]2c3cc4c(cc3[C@@H](O[C@@H]3O[C@@H]5CO[C@@H](c6cccs6)O[C@H]5[C@H](O)[C@H]3O)[C@H]3COC(=O)[C@H]23)OCO4)cc(OC)c1O`, the mutagenic call (Species/Cell Type: Chinese hamster ovary (CHO) cells, Assay Type: Forward gene mutation at the HPRT locus, Assay Code: CHO+, Evaluation Type: Evaluation B (Post-1980)) was “active; positive” and the mutagenic call (Species/Cell Type: Nonhuman, Assay Type: Sister-chromatid exchange (SCE) in vitro, Assay Code: SC2+, Evaluation Type: Evaluation B (Post-1980)) is “active; positive”.
As to `O=c1[nH]c(=O)n([C@H]2C[C@H](O)[C@@H](CO)O2)cc1I`, the mutagenic call is “inactive; negative” (Species/Cell Type: Arabidopsis species, Assay Type: Gene mutation, Assay Code: ARM-, Evaluation Type: Evaluation A (Pre-1980)); “no conclusion” under setting [1]; “no conclusion” (Species/Cell Type: Escherichia coli polA (W3119 vs P3478), Assay Type: Rec-assay, DNA effects (bacterial DNA repair), Assay Code: RE1T, Evaluation Type: Evaluation A (Pre-1980)); “inactive; negative” (Species/Cell Type: Human diploid fibroblasts, Assay Type: Unscheduled DNA synthesis (UDS) in vitro, DNA effects, Assay Code: UDH-, Evaluation Type: Evaluation A (Pre-1980)); “active; positive” (Species/Cell Type: Human lymphocytes, Assay Type: Sister-chromatid exchange (SCE) in vitro, Assay Code: SCL+D, Dose Response: With dose response, Evaluation Type: Evaluation B (Post-1980)); “active; positive” (Species/Cell Type: Human, Assay Type: Sister-chromatid exchange (SCE) in vitro, Assay Code: SC1+D, Dose Response: With dose response, Evaluation Type: Evaluation B (Post-1980)). In addition, the mutagenic call is “no conclusion” (Species/Cell Type: Mammalian polychromatic erythrocytes, Assay Type: Micronucleus test, chromosome aberrations, Assay Code: MNTT, Evaluation Type: Evaluation A (Pre-1980)); “active; positive” (Species/Cell Type: Mouse, Sex: Male, Assay Type: Sperm morphology, Assay Code: SPI+, Evaluation Type: Evaluation A (Pre-1980)); “inactive; negative” (Species/Cell Type: Saccharomyces cerevisiae, Assay Type: Mitotic recombination or gene conversion, Assay Code: YEH-*, Activation: With metabolic activation, Evaluation Type: Evaluation A (Pre-1980)); “inactive; negative” under setting [6]; “inactive; negative” under setting [3]; “active; positive” under setting [2]. For the same compound, the mutagenic call (Species/Cell Type: Syrian hamster embryo (SHE) cells, Assay Type: Cell transformation, clonal assay, Assay Code: CTC-, Evaluation Type: Evaluation A (Pre-1980)) was “inactive; negative”.
Regarding `CCCCNc1ccc(C(=O)OCCN(C)C)cc1`, the mutagenic call under setting [7] was “no conclusion”.
On to `Cc1cc(C)c(S(=O)(=O)O)cc1N=Nc1cc(S(=O)(=O)O)c2ccccc2c1O`, for which the mutagenic call (Species/Cell Type: Bacillus subtilis (H17 vs M45), Assay Type: Rec-assay, spot test, DNA effects (bacterial DNA repair), Assay Code: REWT, Evaluation Type: Evaluation A (Pre-1980)) is reported as “no conclusion”; the mutagenic call (Species/Cell Type: Bacillus subtilis (H17 vs M45T), Assay Type: Rec-assay, spot test, DNA effects (bacterial DNA repair), Assay Code: REXT, Evaluation Type: Evaluation A (Pre-1980)) is “no conclusion”; the mutagenic call under setting [6] was “inactive; negative”.
Take `CCOC(=O)N1CC1`: the mutagenic call under setting [5] was “active; positive”.
As to `CCCCCCCCCCCCCC(=O)ON(C(C)=O)c1ccc2c(c1)Cc1ccccc1-2`, the mutagenic call (Species/Cell Type: Human diploid fibroblasts, Assay Type: Unscheduled DNA synthesis (UDS) in vitro, DNA effects, Assay Code: UDH+, Evaluation Type: Evaluation A (Pre-1980)) was “active; positive” and the mutagenic call under setting [7] was “no conclusion”.
Turning to `COC(=O)NC(=S)Nc1ccccc1NC(=S)NC(=O)OC`, the mutagenic call is, setting by setting: (Species/Cell Type: Aspergillus nidulans, Assay Type: Aneuploidy, chromosome aberrations, Assay Code: ASN+, Evaluation Type: Evaluation A (Pre-1980)) “active; positive”; (Species/Cell Type: Mammalian germ cells, Sex: Male, Assay Type: Chromosome aberrations in vivo, Assay Code: CY9-, Evaluation Type: Evaluation A (Pre-1980)) “inactive; negative”.
For `CC(=O)N(OS(=O)(=O)O)c1ccc2c(c1)Cc1ccccc1-2`, under setting [1], the mutagenic call is “no conclusion”.
On to `CC1=C2CCc3c2c(cc2c3ccc3ccccc32)C(O)C1O` (stereo unspecified), for which, for the setting “Species/Cell Type: Chinese hamster lung (V79) cells, Assay Type: Forward gene mutation at the HPRT or ouabain locus, Assay Code: V79-, Evaluation Type: Evaluation A (Pre-1980)”, the mutagenic call is “inactive; negative”. Moreover, the call (Species/Cell Type: Nonhuman, Assay Code: CCG+L, Evaluation Type: Evaluation A (Pre-1980)) is “active; positive”.
As for `CCCC(C)(C)C(=O)Nc1ccc(Cl)cc1`, the mutagenic call (Species/Cell Type: Saccharomyces cerevisiae, Assay Type: Mitotic recombination or gene conversion, Assay Code: YEC-, Evaluation Type: Evaluation A (Pre-1980)) is “inactive; negative”.
For the compound `Cc1cccc2ncccc12`, the mutagenic call (Species/Cell Type: Salmonella typhimurium (one or more of the five standard strains: TA98, TA100, TA1535, TA1537, and TA1538), Assay Type: Histidine reverse gene mutation, Ames assay, Assay Code: SAL+*, Activation: With metabolic activation, Evaluation Type: Evaluation A (Pre-1980)) is “active; positive”.

For the origin of these results see PubChem BioAssay AID1259408 (Genetic Toxicology Data Bank (GENE-TOX), 2018).
